From patent publication US12344595B2, “2-amino-n-phenyl-nicotinamides as NAV1.8 inhibitors” (Merck Sharp & Dohme LLC, priority 2018, dated 2025)

target: human Nav1.8 (Homo sapiens (Human), UniProt Q9Y5Y9); experiment: Nav1.8 Qube automated patch-clamp assay; assay type: cell-based; details: Nav1.8 Qube Assay; human Nav1.8 channels stably expressed in HEK 293 cells
Procedure: Qube® Assay Experimental Procedure
Compounds were tested on human Nav1.8 and Nav1.5 channels stably expressed in human embryo kidney (HEK) 293 cells. Sodium current measurements on Qube® were conducted as follows: automated 384-well patch-clamp assays on the Qube® platform (Sophion Biosciences) were used to measure the inhibition of sodium flow through human Nav1.8 and Nav1.5 channels. Whole-cell voltage-clamp recordings were performed in QChips® (Sophion Biosciences) at room temperature. Nav1.8 current measurements on Qube® were obtained as follows: Nav1.8 currents were elicited with a 10 second 1 Hertz (Hz) pulse train from a holding potential of −90 millivolts (mV), delivered to the cells once per minute in the control condition (DMSO only) and after compound addition. The 1 hertz pulse train stimulation consisted of ten test pulses to 10 millivolt (mV) for 20 milliseconds (ms), each of which was followed by a 980 millisecond repolarization to −67 millivolts. At the end of the 10 second pulse train stimulation, a 5 second hyperpolarization step to −100 millivolt (mV) was used to recover Nav1.8 from fast inactivation. The peak currents elicited by the 1st and 10th test pulses were used to determine IC50 values for resting inhibition and inactivated state inhibition. Nav1.5 current measurements on Qube® were obtained as follows: Nav1.5 currents were elicited with a 20 second 3 Hertz pulse train in the control condition (DMSO only) and after compound addition. The pulse train consisted of sixty 20 millisecond test pulses to 0 millivolt from a holding potential of −80 millivolt (mV). The average peak currents elicited by the last 3 test pulses were used to determine IC50 values for Nav1.5 inhibition.
The following buffers were used for the Qube® recordings: External buffer for Nav1.8 Qube® recording: 150 NaCl, 2 CaCl2, 5 KCl, 1 Mg Cl2, 10 HEPES, 12 Dextrose; External buffer for Qube® Nav1.5 recording: 120 N-Methyl-D-Glucamine, 40 NaCl, 1 KCl, 2.7 CaCl2, 5 HEPES, 0.5 MgCl2; and Internal buffer for Qube® recording: 120 CsF, 30 CsCl, 10 EGTA, 5 HEPES, 5 NaF, 2 MgCl2.
For all Qube® experiments offline analysis was used to determine percent inhibition as a function of drug concentration. IC50 values were determined by fitting to the Hill equation.

Chain of human Nav1.8 (Q9Y5Y9 whole entry): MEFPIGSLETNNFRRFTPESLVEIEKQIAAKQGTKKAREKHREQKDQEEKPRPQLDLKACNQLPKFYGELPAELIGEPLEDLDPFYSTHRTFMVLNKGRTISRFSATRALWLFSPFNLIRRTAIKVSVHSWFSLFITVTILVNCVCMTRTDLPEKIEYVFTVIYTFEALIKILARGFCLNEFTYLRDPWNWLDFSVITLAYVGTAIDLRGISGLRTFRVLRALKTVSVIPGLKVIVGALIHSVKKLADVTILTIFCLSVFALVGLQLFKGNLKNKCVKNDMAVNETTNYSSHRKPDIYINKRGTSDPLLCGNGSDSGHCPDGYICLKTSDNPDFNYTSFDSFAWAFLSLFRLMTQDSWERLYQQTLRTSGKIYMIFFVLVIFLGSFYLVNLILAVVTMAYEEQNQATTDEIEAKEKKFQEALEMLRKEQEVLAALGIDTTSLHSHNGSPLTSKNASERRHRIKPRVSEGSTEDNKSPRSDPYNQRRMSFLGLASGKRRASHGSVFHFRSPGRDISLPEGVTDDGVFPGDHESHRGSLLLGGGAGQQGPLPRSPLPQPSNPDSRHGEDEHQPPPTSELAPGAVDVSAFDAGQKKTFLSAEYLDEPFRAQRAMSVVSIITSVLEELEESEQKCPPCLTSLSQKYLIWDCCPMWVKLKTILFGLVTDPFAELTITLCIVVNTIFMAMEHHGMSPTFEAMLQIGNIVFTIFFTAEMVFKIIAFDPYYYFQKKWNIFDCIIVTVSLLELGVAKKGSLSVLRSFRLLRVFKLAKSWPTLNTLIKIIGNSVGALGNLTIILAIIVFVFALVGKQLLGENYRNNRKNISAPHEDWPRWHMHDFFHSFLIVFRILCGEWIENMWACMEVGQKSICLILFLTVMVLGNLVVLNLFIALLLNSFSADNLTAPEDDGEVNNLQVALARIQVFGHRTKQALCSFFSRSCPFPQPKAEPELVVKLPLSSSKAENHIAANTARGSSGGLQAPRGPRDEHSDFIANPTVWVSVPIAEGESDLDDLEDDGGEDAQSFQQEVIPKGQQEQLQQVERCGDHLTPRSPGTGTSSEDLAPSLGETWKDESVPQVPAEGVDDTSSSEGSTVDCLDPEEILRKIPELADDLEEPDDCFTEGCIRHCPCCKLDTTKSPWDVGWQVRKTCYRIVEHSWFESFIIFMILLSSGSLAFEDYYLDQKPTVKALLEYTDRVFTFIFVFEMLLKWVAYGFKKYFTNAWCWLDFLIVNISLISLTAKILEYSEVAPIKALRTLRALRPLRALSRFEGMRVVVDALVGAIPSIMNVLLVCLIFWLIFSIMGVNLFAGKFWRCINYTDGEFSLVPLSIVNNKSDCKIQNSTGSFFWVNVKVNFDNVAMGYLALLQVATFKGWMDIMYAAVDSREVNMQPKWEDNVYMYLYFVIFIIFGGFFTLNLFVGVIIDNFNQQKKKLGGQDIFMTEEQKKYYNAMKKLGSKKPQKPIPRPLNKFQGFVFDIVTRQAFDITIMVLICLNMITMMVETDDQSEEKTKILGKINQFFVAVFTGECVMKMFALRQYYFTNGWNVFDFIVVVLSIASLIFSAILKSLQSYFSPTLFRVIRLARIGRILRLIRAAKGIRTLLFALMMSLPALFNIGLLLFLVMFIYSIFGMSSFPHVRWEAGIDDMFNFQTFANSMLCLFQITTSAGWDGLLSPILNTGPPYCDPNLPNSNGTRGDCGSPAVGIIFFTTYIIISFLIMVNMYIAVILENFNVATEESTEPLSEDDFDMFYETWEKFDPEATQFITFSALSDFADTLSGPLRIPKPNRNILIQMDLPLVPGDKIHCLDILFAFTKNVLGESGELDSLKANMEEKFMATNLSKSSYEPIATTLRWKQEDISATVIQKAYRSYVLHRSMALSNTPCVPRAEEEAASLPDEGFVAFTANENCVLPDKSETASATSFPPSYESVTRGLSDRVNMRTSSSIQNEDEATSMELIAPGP

| SMILES | IC50 |
| --- | --- |
| N#Cc1ccc(NC(=O)c2cc(C(F)(F)F)cnc2N2CCCCCC2)cc1 [Example 22, 2-(azepan-1-yl)-N-(4-cyanophenyl)-5-(trifluoromethyl)pyridine-3-carboxamide] | 470 nM |
| Cc1nc(N2CCCCC2)c(C(=O)Nc2cccc(S(C)(=O)=O)c2)c(C)c1Cl [Example 12, 5-chloro-4,6-dimethyl-N-(3-methylsulfonyl-phenyl)-2-(1-piperidyl)pyridine-3-carboxamide] | 54 nM |
| C[C@@H]1CN(c2ncc(C(F)(F)F)cc2C(=O)Nc2cccc(S(N)(=O)=O)c2)C[C@@H](C(F)(F)F)O1 [Example 146, 2-[(2R,6S)-2-methyl-6-(trifluoromethyl)morpholin-4-yl]-N-(3-sulfamoylphenyl)-5-(trifluoromethyl) pyridine-3-carboxamide] | 26 nM |
| Cc1cc(Cl)nc(N2CCCC(F)(F)CC2)c1C(=O)Nc1cccc(S(C)(=O)=O)c1 [Example 8, 6-chloro-2-(4,4-difluoroazepan-1-yl)-4-methyl-N-(3-methyl-sulfonylphenyl)pyridine-3-carboxamide] | 5.8 nM |
| NS(=O)(=O)c1cccc(NC(=O)c2ccc(OC(F)(F)F)nc2N2CCCCC2)c1 [Example 84, 2-(piperidin-1-yl)-N-(3-sulfamoylphenyl)-6-(trifluoromethoxy)nicotinamide] | 248 nM |
| NS(=O)(=O)c1cccc(NC(=O)c2cc(C(F)(F)F)cnc2N2CCNC(C(F)(F)F)C2)c1 (centres unmarked) [Example 143, N-(3-sulfamoylphenyl)-5-(trifluoromethyl)-2-[3-(trifluoromethyl)-piperazin-1-yl]pyridine-3-carboxamide] | 2180 nM |
| C[C@@H]1CN(c2ncc(C(F)(F)F)cc2C(=O)Nc2cccc(S(N)(=O)=O)c2)C[C@H](C)C1(F)F [Example 125, 2-[(3S,5R)-4,4-difluoro-3,5-dimethyl-1-piperidyl]-N-(3-sulfamoylphenyl)-5-(trifluoromethyl)-pyridine-3-carboxamide] | 2.4 nM |
| Cc1nc(N2CCCCCC2)c(C(=O)Nc2cccc(S(N)(=O)=O)c2)cc1Cl [Example 26, 2-(azepan-1-yl)-5-chloro-6-methyl-N-(3-sulfamoylphenyl)nicotinanmide] | 2.1 nM |
| NS(=O)(=O)c1cccc(NC(=O)c2cc(C(F)(F)F)cnc2N2CC3CCC3(C(F)(F)F)C2)c1 (single isomer, unassigned) [Example 130, N-(3-sulfamoylphenyl)-5-(trifluoromethyl)-2-[(1R,5R or 1S,5S)-1-(trifluoromethyl)-3-azabicyclo[3.2.0]heptan-3-yl]pyridine-3-carboxamide] | 16 nM |
| NS(=O)(=O)c1cccc(NC(=O)c2cc(C(F)(F)F)cnc2N2CCCCCC2)c1 [Example 44, 2-(azepan-1-yl)-N-(3-sulfamoylphenyl)-5-(trifluoromethyl)-pyridine-3-carboxamide] | 9.5 nM |
| Cc1nc(N2CCC3(CC2)CC3)c(C(=O)Nc2cccc(S(N)(=O)=O)c2)c(C)c1Cl [Example 76, 2-(6-azaspiro[2.5]-octan-6-yl)-5-chloro-4,6-dimethyl-N-(3-sulfamoylphenyl) pyridine-3-carboxamide] | 2.2 nM |
| Cc1nc(N2CCCCCC2)c(C(=O)Nc2cccc(C(N)=O)c2)cc1C#N [Example 178, 2-(azepan-1-yl)-N-(3-carbamoylphenyl)-5-cyano-6-methyl-pyridine-3-carboxamide] | 54 nM |
| Cc1cc(C(=O)Nc2cccc(C(N)=O)c2)c(N2CCCCCC2)nc1C [Example 37, 2-(azepan-1-yl)-N-(3-carbamoylphenyl)-5,6-dimethyl-pyridine-3-carboxamide] | 106 nM |
| Cc1nc(N2CCC(F)(F)CC2)c(C(=O)Nc2cccc(C#N)c2)c(C)c1Cl [Example 20, 5-chloro-N-(3-cyanophenyl)-2-(4,4-difluoro-1-piperidyl)-4,6-dimethyl-pyridine-3-carboxamide] | 74 nM |
| NS(=O)(=O)c1cc(NC(=O)c2cc(C(F)(F)F)cnc2N2CCCCC2)ccc1F [Example 115, N-(4-fluoro-3-sulfamoyl-phenyl)-2-(1-piperidyl)-5-(trifluoro-methyl)pyridine-3-carboxamide] | 567 nM |
| NS(=O)(=O)c1cccc(NC(=O)c2cc(C(F)(F)F)cnc2N2CCC(F)(F)CC2)c1 [Example 1, 2-(4,4-difluoropiperidin-1-yl)-N-(3-sulfamoylphenyl)-5-(trifluoromethyl)nicotinamide] | 47 nM |

More lines, in order of falling IC50, values ahead:

| IC50 | SMILES |
| --- | --- |
| 4240 nM | NS(=O)(=O)c1cccc(NC(=O)c2cc(C(F)(F)F)cnc2N2CC3(CCOCC3)C2)c1 [Example 81, 2-(7-oxa-2-azaspiro[3.5]nonan-2-yl)-N-(3-sulfamoyl-phenyl)-5-(trifluoro-methyl)nicotinamide] |
| 3770 nM | NC(=O)c1cccc(NC(=O)c2cc(C(F)(F)F)cnc2N2CCCC(F)(F)C2)c1 [Example 110, N-(3-carbamoylphenyl)-2-(3,3-difluoro-1-piperidyl)-5-(tri-fluoromethyl)pyridine-3-carboxamide] |
| 860 nM | NC(=O)c1cccc(NC(=O)c2cc(C(F)(F)F)cnc2N2CCC3(CC3)C(F)(F)C2)c1 [Example 109, N-(3-carbamoylphenyl)-2-(8,8-difluoro-6-aza-spiro[2.5]octan-6-yl)-5-(trifluoro-methyl)-pyridine-3-carboxamide] |
| 681 nM | NS(=O)(=O)c1cccc(NC(=O)c2cc(C3COC3)cnc2N2CCCC(F)(F)CC2)c1 [Example 160, 2-(4,4-difluoroazepan-1-yl)-5-(oxetan-3-yl)-N-(3-sulfamoylphenyl)nicotinamide] |
| 338 nM | NS(=O)(=O)c1cccc(NC(=O)c2cc(C(F)(F)F)cnc2N2CCCC[C@H](F)C2)c1 [Example 54, 2-[(3S)-3-fluoroazepan-1-yl]-N-(3-sulfamoyl-phenyl)-5-(trifluoro-methyl)pyridine-3-carboxamide] |
| 113 nM | C[C@H]1CN(c2ncc(C(F)(F)F)cc2C(=O)Nc2cccc(S(N)(=O)=O)c2)C[C@@H](C(F)(F)F)O1 [Example 148, 2-[(2S,6S)-2-methyl-6-(trifluoromethyl)-morpholin-4-yl]-N-(3-sulfamoylphenyl)-5-(trifluoromethyl) pyridine-3-carboxamide] |
| 83 nM | NS(=O)(=O)c1cccc(NC(=O)c2cc(C(F)(F)F)cnc2N2CCO[C@H](C(F)(F)F)C2)c1 [Example 140, N-(3-sulfamoylphenyl)-5-(trifluoromethyl)-2-[(2S)-2-(trifluoro-methyl)--morpholin-4-yl]pyridine-3-carboxamide] |
| 73 nM | NC(=O)c1cccc(NC(=O)c2cc(C(F)(F)F)cnc2N2CCCCCCC2)c1 [Example 107, 2-(azocan-1-yl)-N-(3-carbamoylphenyl)-5-(trifluoromethyl)-pyridine-3-carboxamide] |
| 32 nM | COc1nc(N2CCCCCC2)c(C(=O)Nc2cccc(S(N)(=O)=O)c2)cc1C [Example 155, 2-(azepan-1-yl)-6-methoxy-5-methyl-N-(3-sulfamoylphenyl)nicotinamide] |
| 31 nM | COc1ccc(C(=O)Nc2cccc(S(C)(=O)=O)c2)c(N2CCCC(F)(F)CC2)n1 [Example 11, 2-(4,4-difluoroazepan-1-yl)-6-methoxy-N-(3-methylsulfonylphenyl) pyridine-3-carboxamide] |
| 22 nM | NS(=O)(=O)c1cccc(NC(=O)c2cc(Cl)cnc2N2CCCCCC2)c1 [Example 31, 2-(azepan-1-yl)-5-chloro-N-(3-sulfamoyl-phenyl)pyridine-3-carboxamide] |
| 12 nM | NS(=O)(=O)c1cccc(NC(=O)c2cc(C(F)(F)F)cnc2N2CC3CCC(C3)C2)c1 (racemic) [Example 45, 2-[rac-3-azabicyclo[3.2.1]octan-3-yl]-N-(3-sulfamoyl-phenyl)-5-(trifluoro-methyl)pyridine-3-carboxamide] |
| 8.4 nM | CS(=O)(=O)c1cccc(NC(=O)c2cc(C(F)(F)F)cnc2N2CCCC(F)(F)CC2)c1 [Example 94, 2-(4,4-difluoroazepan-1-yl)-N-(3-methylsulfonylphenyl)-5-(trifluoromethyl)-pyridine-3-carboxamide] |
| 6 nM | NS(=O)(=O)c1cccc(NC(=O)c2cc(C(F)(F)F)cnc2N2CCCCCCC2)c1 [Example 88, 2-(azocan-1-yl)-N-(3-sulfamoylphenyl)-5-(trifluoromethyl)-pyridine-3-carboxamide] |
| 3.5 nM | Cc1nc(N2CCCCCC2)c(C(=O)Nc2cccc(S(C)(=O)=O)c2)c(C)c1Cl [Example 7, 2-(azepan-1-yl)-5-chloro-4,6-dimethyl-N-(3-methylsulfonyl-phenyl)pyridine-3-carboxamide] |
| 3.2 nM | Cc1nc(N2CCCCCC2)c(C(=O)Nc2cccc(S(N)(=O)=O)c2)cc1C(F)(F)F [Example 168, 2-(azepan-1-yl)-6-methyl-N-(3-sulfamoylphenyl)-5-(trifluoromethyl)nicotinamide] |
